From US20230416199A1, “INHIBITORS OF AMINO ACID TRANSPORT” (ICAHN SCHOOL OF MEDICINE AT MOUNT SINAI, priority 2020, published 2023)
Like-named read-outs stand apart in the source and are kept apart here.

Columns and labels:
Assay type in all cases: cell-based
[1] = molecular target: T1, hASCT1 (Homo sapiens, UniProt P43007); experiment: Electrophysiology (whole-cell current recording) of transfected HEK293 cells, hASCT1
T1 construct: expressed in transfected cells; host or cells: HEK293 (ATCC CRL-11268), transient transfection
T1 sequence (P43007 1-532): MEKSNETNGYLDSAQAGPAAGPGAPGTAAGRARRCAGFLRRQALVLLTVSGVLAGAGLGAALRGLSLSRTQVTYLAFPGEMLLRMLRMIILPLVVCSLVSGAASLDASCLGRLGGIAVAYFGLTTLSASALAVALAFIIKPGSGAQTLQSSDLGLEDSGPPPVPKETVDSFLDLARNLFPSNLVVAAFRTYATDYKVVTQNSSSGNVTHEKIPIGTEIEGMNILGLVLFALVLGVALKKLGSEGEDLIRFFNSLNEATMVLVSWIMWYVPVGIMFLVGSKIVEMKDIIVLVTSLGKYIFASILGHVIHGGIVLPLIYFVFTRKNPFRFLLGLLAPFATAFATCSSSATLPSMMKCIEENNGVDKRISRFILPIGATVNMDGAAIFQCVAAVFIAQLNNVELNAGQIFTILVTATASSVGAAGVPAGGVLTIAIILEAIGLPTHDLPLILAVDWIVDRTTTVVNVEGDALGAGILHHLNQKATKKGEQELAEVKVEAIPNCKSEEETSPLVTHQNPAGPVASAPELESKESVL
Experimental: (§1) Human embryonic kidney 293 (HEK293, ATCC CRL-11268) cells were cultured in DMEM media supplemented with 10% (v v) fetal bovine serum (FBS), 2 mM glutamine, 1% penicillin streptomycin solution, 1 mM sodium pyruvate and non-essential amino acids. Cells were maintained at 37° C. in a fully humidified atmosphere containing 5% CO2. rASCT2, hASCT2, hASCT1, EAAT1, EAAT2, EAAC1, EAAT5 and YFP complementary DNAs were each used to transiently transfect HEK293 using POLYPLUS Jet-prime transfection reagent. Cells were analyzed using electrophysiological techniques 24-40 hours after transfection.
(§2) Stock solutions of inhibitor was prepared in dimethyl sulfoxide (DMSO) up to 100 mM. Dilutions to working concentrations were made using external buffer. […] For rASCT2, hASCT2 and hASCT1, external buffer contained 140 mM NaCl, 2 mM MgCl2, 2 mM CaCl2), and 10 mM HEPES, pH 7.40 while internal pipette solution comprised of 130 mM NaSCN, 2 mM MgCl2, 10 mM EGTA, 10 mM HEPES and 10 mM alanine, pH 7.40. For specificity experiments with EAAT1, EAAT2, EAAC1 and EAAT5, internal solution contained 10 mM glutamate instead of alanine. Compounds were applied to HEK293 cells expressing DNA of interest suspended from a current recording electrode in whole cell configuration through a rapid solution exchange device. Cells are immersed in external buffer bath used to dissolve the inhibitors. The open pipette resistance was between 3 and 6 MΩ. Series resistance was not compensated in these experiments due to relatively small currents. Currents traces were recorded using an Adams and List EPC7 amplifier and digitized using a Molecular Devices Digidata A/D converter.
(§3) Linear and nonlinear curve fitting of the experimental data were analyzed using MicroCal Origin software. Nonlinear dose-response relationships were fitted with a Michaelis-Menten-like equation to obtain apparent Ki values in the absence of substrate (see TABLE 2 for Ki values). The figures show representative current traces and dose-response curves for hACST2 and rASCT2, used to obtain Ki values in TABLE 2 for compound SN 40. At least four experiments were performed with at least three different cells. Error bars in all graphs, e.g., in FIG. 1B and FIG. 1C and tables (Ki values) represent mean±SD.

[2] = molecular target: T2, hASCT2 (Homo sapiens, UniProt Q15758); experiment: Electrophysiology (whole-cell current recording) of transfected HEK293 cells, hASCT2
T2 construct: expressed in transfected cells; host or cells: HEK293 (ATCC CRL-11268), transient transfection
T2 sequence (Q15758 1-541): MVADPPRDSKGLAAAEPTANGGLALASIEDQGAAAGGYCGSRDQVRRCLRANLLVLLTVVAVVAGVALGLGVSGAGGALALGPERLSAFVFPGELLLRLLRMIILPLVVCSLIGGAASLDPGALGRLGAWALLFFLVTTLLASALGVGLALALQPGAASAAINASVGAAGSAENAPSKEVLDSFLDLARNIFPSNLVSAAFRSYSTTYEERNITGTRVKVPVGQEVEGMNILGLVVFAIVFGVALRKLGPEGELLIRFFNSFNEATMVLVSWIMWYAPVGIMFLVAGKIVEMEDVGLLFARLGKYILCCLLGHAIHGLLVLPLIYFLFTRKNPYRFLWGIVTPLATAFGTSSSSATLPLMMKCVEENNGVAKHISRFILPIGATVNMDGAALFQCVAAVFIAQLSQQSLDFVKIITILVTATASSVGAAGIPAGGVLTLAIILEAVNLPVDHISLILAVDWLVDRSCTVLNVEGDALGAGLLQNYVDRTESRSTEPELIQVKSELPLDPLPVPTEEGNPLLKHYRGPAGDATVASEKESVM
Experimental: as §1, §2, §3

[3] = molecular target: T3, rASCT2 (Rattus norvegicus, UniProt D3ZJ25); experiment: Electrophysiology (whole-cell current recording) of transfected HEK293 cells, rASCT2
T3 construct: expressed in transfected cells; host or cells: HEK293 (ATCC CRL-11268), transient transfection
T3 sequence (D3ZJ25 1-555): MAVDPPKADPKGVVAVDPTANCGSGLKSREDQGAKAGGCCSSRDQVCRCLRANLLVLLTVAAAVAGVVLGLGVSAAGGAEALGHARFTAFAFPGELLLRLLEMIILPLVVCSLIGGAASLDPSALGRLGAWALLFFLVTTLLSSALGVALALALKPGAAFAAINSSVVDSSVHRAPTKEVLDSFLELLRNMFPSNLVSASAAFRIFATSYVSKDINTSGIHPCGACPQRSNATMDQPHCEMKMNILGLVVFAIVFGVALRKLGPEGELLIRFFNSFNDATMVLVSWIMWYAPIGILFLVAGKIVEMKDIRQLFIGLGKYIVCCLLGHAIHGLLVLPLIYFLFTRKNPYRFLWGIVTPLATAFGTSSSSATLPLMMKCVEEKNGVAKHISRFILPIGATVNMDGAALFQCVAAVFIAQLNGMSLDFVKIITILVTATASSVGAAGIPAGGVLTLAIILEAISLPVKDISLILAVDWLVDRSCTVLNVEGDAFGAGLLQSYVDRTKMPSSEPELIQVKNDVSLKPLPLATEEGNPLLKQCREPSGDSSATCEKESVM
Experimental: as §1, §2, §3

[4] = molecular target: T4, EAAT1 (Homo sapiens, UniProt P43003); experiment: Electrophysiology specificity experiment in transfected HEK293 cells, EAAT1; settings: apparent Ki, HEK293, internal solution 10 mM glutamate, mean ± SD
T4 construct: expressed in transfected cells; host or cells: HEK293 (ATCC CRL-11268), transient transfection
T4 sequence (P43003 whole entry, species assumed): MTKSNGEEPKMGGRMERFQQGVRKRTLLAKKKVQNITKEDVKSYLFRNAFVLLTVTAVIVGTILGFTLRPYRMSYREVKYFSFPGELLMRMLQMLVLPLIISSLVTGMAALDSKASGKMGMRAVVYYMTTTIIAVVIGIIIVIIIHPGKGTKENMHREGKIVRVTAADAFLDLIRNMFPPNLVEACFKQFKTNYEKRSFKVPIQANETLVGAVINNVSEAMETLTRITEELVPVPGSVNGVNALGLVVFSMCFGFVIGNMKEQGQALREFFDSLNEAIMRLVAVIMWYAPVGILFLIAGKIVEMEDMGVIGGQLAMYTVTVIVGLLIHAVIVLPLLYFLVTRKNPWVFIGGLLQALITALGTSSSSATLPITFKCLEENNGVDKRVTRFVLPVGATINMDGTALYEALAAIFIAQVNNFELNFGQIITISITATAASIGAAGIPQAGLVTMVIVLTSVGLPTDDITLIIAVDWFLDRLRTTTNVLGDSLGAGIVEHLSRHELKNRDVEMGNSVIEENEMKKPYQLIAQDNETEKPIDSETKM
Experimental: as §1, §2, §3

[5] = Table 3, dihydroxyproline derivatives, read-out: Ki All DNA: hASCT1
[6] = Table 3, dihydroxyproline derivatives, read-out: Ki All DNA: hASCT2
[7] = Table 3, dihydroxyproline derivatives, read-out: Ki All DNA: rASCT2
[8] = apparent Ki in the absence of substrate, HEK293, mean ± SD, read-out: Ki hASCT2
[9] = apparent Ki in the absence of substrate, HEK293, mean ± SD, read-out: Ki rASCT2
[10] = apparent Ki in the absence of substrate, HEK293, mean ± SD, read-out: Ki hASCT1

| Compound | Ki [2, 8] [nM] | Ki [3, 9] [nM] | Ki [1, 10] [µM] | further results |
| --- | --- | --- | --- | --- |
| O=C(OC[C@@]1(O)CN[C@H](C(=O)O)C1)c1ccc(-c2cccc(F)c2)cc1F [SN60] | – | – | – | Ki [1, 5]: 8.15 µM; Ki [2, 6]: 4610 nM; Ki [3, 7]: 4870 nM |
| O=C(OC[C@@]1(O)CN[C@H](C(=O)O)C1)c1ccc(C(=O)c2ccccc2)cc1 [SN61] | – | – | – | Ki [1, 5]: 18.6 µM; Ki [2, 6]: 108000 nM; Ki [3, 7]: 88600 nM |
| O=C(OC[C@@]1(O)CN[C@H](C(=O)O)C1)c1ccc(C(O)c2ccccc2)cc1 (some centres unmarked) [SN63] | – | – | – | Ki [1, 5]: 93 µM; Ki [2, 6]: 405000 nM; Ki [3, 7]: 232000 nM |
| O=C(O[C@]1(CO)CN[C@H](C(=O)O)C1)c1ccc(-c2ccc(F)cc2)cc1 [SN74] | – | – | – | Ki [1, 5]: 2.45 µM; Ki [2, 6]: 3200 nM; Ki [3, 7]: 2160 nM |
| O=C(O[C@]1(CO)CN[C@H](C(=O)O)C1)c1ccc(-c2ccc(C(F)(F)F)cc2)cc1 [SN75] | – | – | – | Ki [1, 5]: 1.17 µM; Ki [2, 6]: 8070 nM; Ki [3, 7]: 3310 nM |
| O=C(O[C@]1(CO)CN[C@H](C(=O)O)C1)c1ccc(Oc2ccccc2)cc1 [SN76] | – | – | – | Ki [1, 5]: 12.2 µM; Ki [2, 6]: 31900 nM; Ki [3, 7]: 20000 nM |
| O=C(O[C@@H]1CN[C@H](C(=O)O)C1)c1cccc(-c2ccccc2)c1 [SN 06] | 5560 ± 4700 | 5630 ± 1000 | – | – |
| O=C(O[C@@H]1CN[C@H](C(=O)O)C1)c1ccc(C(O)c2ccccc2)cc1 (some centres unmarked) [SN 13] | 5650 ± 1300 | 18800 ± 5000 | 43 ± 13.4 | Ki [4]: 39.5 ± 19 µM |
| O=C(Nc1ccc(C(=O)O[C@@H]2CN[C@H](C(=O)O)C2)cc1)c1ccccc1 [SN 14] | – | 4580 ± 1100 | – | – |
| O=C(Nc1ccc(C(=O)O[C@@H]2CN[C@H](C(=O)O)C2)cc1)c1ccc(C(F)(F)F)cc1 [SN 15] | 2940 ± 900 | 3370 ± 400 | 8.51 ± 3.9 | Ki [4]: 1.29 ± 0.2 µM |
| O=C(Nc1cccc(C(=O)O[C@@H]2CN[C@H](C(=O)O)C2)c1)c1ccc(C(F)(F)F)cc1 [SN 17] | – | – | 9.97 ± 0.5 | Ki ([2]; apparent Ki in the absence of substrate, HEK293, nM, read-out: Ki hASCT2): < 100 nM; Ki ([3]; apparent Ki in the absence of substrate, HEK293, nM, read-out: Ki rASCT2): < 100 nM |
| O=C(O[C@@H]1CN[C@H](C(=O)O)C1)c1ccc(-c2ccccn2)cc1 [SN 18] | 3010 ± 500 | 2790 ± 700 | 7.01 ± 2.1 | Ki [4]: 12.4 ± 1 µM |
| O=C(O[C@@H]1CN[C@H](C(=O)O)C1)c1ccc(Oc2ccccc2)cc1 [SN 20] | 4170 ± 500 | 3680 ± 700 | 5.71 ± 0.9 | – |
| O=C(O[C@@H]1CN[C@H](C(=O)O)C1)c1ccc(OCc2ccccc2)cc1 [SN 21] | – | 8170 ± 1100 | > 100 | – |
| O=C(O[C@@H]1CN[C@H](C(=O)O)C1)c1c2ccccc2cc2ccccc12 [SN 22] | – | 10000 ± 5100 | – | – |
| N[C@@H](COC(=O)c1ccc(-c2cccc(F)c2)cc1F)C(=O)O [SN 24] | – | 19700 ± 3100 | – | – |
| N[C@@H](COC(=O)c1ccc(C(=O)c2ccccc2)cc1)C(=O)O [SN 26] | – | 22000 ± 4500 | – | – |

Now from value to compound, other results behind:

| Ki [2, 8] [nM] | Ki [3, 9] [nM] | Ki [1, 10] [µM] | Compound | further results |
| --- | --- | --- | --- | --- |
| – | 5170 ± 1200 | – | N[C@@H](COC(=O)c1ccc(C(O)c2ccccc2)cc1)C(=O)O (some centres unmarked) [SN 27] | – |
| 3500 ± 600 | 3510 ± 600 | – | N[C@@H](CCOC(=O)c1ccc(-c2ccccc2)cc1)C(=O)O [SN 33] | – |
| 10000 ± 2800 | 3630 ± 1100 | – | N[C@H](C(=O)O)[C@@H](O)COC(=O)c1ccc(-c2ccccc2)cc1 [SN 34] | – |
| 840 ± 200 | 4830 ± 1000 | – | N[C@H](C(=O)O)[C@H](O)COC(=O)c1ccc(-c2ccccc2)cc1 [SN 35] | – |
| 6380 ± 1200 | 6020 ± 1800 | – | N[C@H](C(=O)O)[C@H](CO)OC(=O)c1ccc(-c2ccccc2)cc1 [SN 36] | – |
| 2710 ± 500 | 7460 ± 900 | – | N[C@H](C(=O)O)[C@@H](CO)OC(=O)c1ccc(-c2ccccc2)cc1 [SN 37] | – |
| – | 380 ± 170 | – | N[C@@H](COCc1ccc(-c2ccccc2)cc1)C(=O)O [SN 38] | – |
| 1150 ± 900 | – | – | O=C(O)[C@@H]1C[C@H](NCc2ccc(-c3ccc(C(F)(F)F)cc3)cc2)CN1 [SN 41] | – |
| 103000 ± 11200 | 74700 ± 18300 | 172 ± 24 | O=C(Nc1cccc(CN[C@@H]2CN[C@H](C(=O)O)C2)c1)c1ccccc1 [SN 42] | – |
| 33600 ± 2500 | 27200 ± 1900 | 20 ± 2.3 | O=C(Nc1ccc(CN[C@@H]2CN[C@H](C(=O)O)C2)cc1)c1ccccc1 [SN 43] | – |
| 4690 ± 1100 | 1680 ± 600 | – | O=C(N[C@@H]1CN[C@H](C(=O)O)C1)c1ccc(-c2ccccc2)cc1 [SN 45] | – |
| 227000 ± 34200 | 151000 ± 13300 | 141 ± 17.6 | O=C(Nc1cccc(C(=O)N[C@@H]2CN[C@H](C(=O)O)C2)c1)c1ccccc1 [SN 47] | – |
| 17300 ± 2100 | 12400 ± 1800 | 7.9 ± 0.5 | O=C(Nc1ccc(C(=O)N[C@@H]2CN[C@H](C(=O)O)C2)cc1)c1ccccc1 [SN 48] | – |
